Assay results from patent US10500194B2, “Covalent small molecule DCN1 inhibitors and therapeutic methods using the same” (THE REGENTS OF THE UNIVERSITY OF MICHIGAN, priority 2017, dated 2019).

The compounds below were run against DCN1 (Homo sapiens (Human), UniProt Q96GG9) (assay: Competitive FP binding assay). Details: read-out: Binding affinity to DCN1 (IC50).
Method: The Fluorescence Polarization (FP) competitive binding assays were performed to accurately determine the binding affinities of our DCN1 inhibitors. A novel FAM labeled fluorescent probe compound (46) was designed and synthesized based on one of our potent small molecule DCN1 inhibitors. Equilibrium dissociation constants (Kd) values of 46 to both DCN1 and DCN2 proteins were determined from protein saturation experiments by monitoring the total FP values of mixtures composed with the fluorescent probe at a fixed concentration and proteins with increasing concentrations up to full saturation. Serial dilutions of proteins were mixed with 46 to a final volume of 200 μl in the assay buffer (100 mM phosphate buffer, pH=6.5, with 0.02% Tween-20 and 2% DMSO). Final probe concentration was 5 nM for both assays. Plates were incubated at room temperature for 30 minutes with gentle shaking to assure equilibrium. FP values in millipolarization units (mP) were measured using the Infinite M-1000 plate reader (Tecan U.S., Research Triangle Park, N.C.) in Microfluor 1 96-well, black, round-bottom plates (Thermo Scientific, Waltham, Mass.) at an excitation wavelength of 485 nm and an emission wavelength of 530 nm. Kd values of 46 were calculated by fitting the sigmoidal dose-dependent FP increases as a function of protein concentrations using Graphpad Prism 6.0 software (Graphpad Software, San Diego, Calif.).
Human DCN1 (residues 58-259) were cloned into a pDEST17 plasmid containing an N-terminal His6 tag. DCN2 (residues 62-259), DCN3 (residues 86-304), DCN4 (residues 102-292) and DCN5 (residues 47-237) were cloned into an N-terminal His6-TEV expression vector. Pure proteins were derived from the same expression and purification protocols. Plasmids were transformed into Rosetta2 cells, the cells were grown in Terrific Broth at 37° C. to an O.D.600>1.0 and induced with 0.4 mM Isopropyl β-D-1-thiogalactopyranoside overnight at 20° C. The pelleted cells were resuspended in lysis buffer containing 25 mM Tris-HCl, pH 7.5, 200 mM NaCl and protease inhibitors, sonicated and centrifuged at 34,000×g for 45 minutes to remove debris. Cleared lysate was incubated with Ni-NTA resin (Qiagen) prewashed with lysis buffer, for 1 hr at 4° C. The matrix was loaded into a column then washed with 25 mM Tris-HCl, pH 7.5, 200 mM NaCl and 10 mM imidazole. Protein was eluted with 25 mM Tris-HCl, pH 7.5, 200 mM NaCl and 300 mM imidazole, concentrated and applied to a Superdex 75 (GE Healthcare) column pre-equilibrated with 25 mM Tris pH 7.5, 200 mM NaCl and 1 mM DTT. For DCN2-5, the N-terminal His6 tag was removed prior to gel filtration. Tag removal was achieved through incubation with TEV protease during overnight dialysis against 25 mM Tris pH 7.5, 200 mM NaCl and 1 mM DTT and a second Ni-NTA column. DCN2-5 proteins were stored at −80° C. in 1 mg/mL fractions containing 5% glycerol. The uncleaved DCN1 protein was stored at −80° C. without glycerol.

Chain of DCN1 (Q96GG9 58-259): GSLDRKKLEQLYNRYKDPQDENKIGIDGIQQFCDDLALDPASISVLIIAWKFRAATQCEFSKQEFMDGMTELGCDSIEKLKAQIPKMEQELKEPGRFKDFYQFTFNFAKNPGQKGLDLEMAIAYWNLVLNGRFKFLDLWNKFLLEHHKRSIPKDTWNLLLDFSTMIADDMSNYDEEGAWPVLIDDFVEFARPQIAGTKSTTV

IC50 [nM]	SMILES
205	C=CC(=O)NC[C@H](Cc1ccccc1)NC(=O)[C@H](Cc1nc2ccc(Cl)cc2s1)NC(=O)CC [Example 1, N—((S)-2-((S)-3-(6-chlorobenzo[d]thiazol-2-yl)-2-propionamidopropanamido)-3-phenylpropyl)acrylamide]
153	CCC(=O)N[C@@H](Cc1nc2ccc(Cl)cc2s1)C(=O)N[C@H](CNC(=O)/C=C/CN(C)C)Cc1ccccc1 [Example 2, (E)-N—((S)-2-((S)-3-(6-chlorobenzo[d]thiazol-2-yl)-2-propionamidopropanamido)-3-phenylpropyl)-4-(dimethylamino)but-2-enamide]
156	C=C(CN1CCOCC1)C(=O)NC[C@H](Cc1ccccc1)NC(=O)[C@H](Cc1nc2ccc(Cl)cc2s1)NC(=O)CC [Example 3, N—((S)-2-((S)-3-(6-chlorobenzo[d]thiazol-2-yl)-2-propionamidopropanamido)-3-phenylpropyl)-2-(morpholinomethyl)acrylamide]
80.7	C=C(CN1CCOCC1)C(=O)NC[C@H](CC1CCCCC1)NC(=O)[C@H](Cc1nc2ccc(Cl)cc2s1)NC(=O)CC [Example 5, N—((S)-2-((S)-3-(6-chlorobenzo[d]thiazol-2-yl)-2-propionamidopropanamido)-3-cyclohexylpropyl)-2-(morpholinomethyl)acrylamide]
135	C=C(CN1CCOCC1)C(=O)NC[C@@H](NC(=O)[C@H](Cc1nc2ccc(Cl)cc2s1)NC(=O)CC)C1CCCC1 [Example 6, N—((S)-2-((S)-3-(6-chlorobenzo[d]thiazol-2-yl)-2-propionamidopropanamido)-2-cyclopentylethyl)-2-(morpholinomethyl)acrylamide]
99.8	C=C(CN1CCOCC1)C(=O)NC[C@H](Cc1ccccc1)NC(=O)[C@H](Cc1nc2ccc(CC)cc2s1)NC(=O)CC [Example 8, N—((S)-2-((S)-3-(6-ethylbenzo[d]thiazol-2-yl)-2-propionamidopropanamido)-3-phenylpropyl)-2-(morpholinomethyl)acrylamide]
292	CCC(=O)N[C@@H](Cc1nc2ccc(Cl)cc2s1)C(=O)N[C@H](CNC(=O)C1=CCCN(C)C1)Cc1ccccc1 [Example 12, N—((S)-2-((S)-3-(6-chlorobenzo[d]thiazol-2-yl)-2-propionamidopropanamido)-3-phenylpropyl)-1-methyl-1,2,5,6-tetrahydropyridine-3-carboxamide]
360	CCC(=O)N[C@@H](Cc1nc2ccc(Cl)cc2s1)C(=O)N[C@H](CNC(=O)CCl)Cc1ccccc1 [Example 20, (S)—N—((S)-1-(2-chloroacetamido)-3-phenylpropan-2-yl)-3-(6-chlorobenzo[d]thiazol-2-yl)-2-propionamidopropanamide]
< 150	C=C(CN1CCCCC1)C(=O)NC[C@@H](NC(=O)[C@H](Cc1nc2ccc(C(C)C)cc2s1)NC(=O)CC)C1CCCCC1 [Example 23, N—((S)-2-cyclohexyl-2-((S)-3-(6-isopropylbenzo[d]thiazol-2-yl)-2-propionamidopropanamido)ethyl)-2-(piperidin-1-ylmethyl)acrylamide]
< 150	C=C(Cn1ccnc1)C(=O)NC[C@@H](NC(=O)[C@H](Cc1nc2ccc(C(C)C)cc2s1)NC(=O)CC)C1CCCCC1 [Example 24, 2-((1H-imidazol-1-yl)methyl)-N—((S)-2-cyclohexyl-2-((S)-3-(6-isopropylbenzo[d]thiazol-2-yl)-2-propionamidopropanamido)ethyl)acrylamide]
< 150	C=C(CN1CCC1)C(=O)NC[C@@H](NC(=O)[C@H](Cc1nc2ccc(C(C)C)cc2s1)NC(=O)CC)C1CCCCC1 [Example 25, 2-(azetidin-1-ylmethyl)-N—((S)-2-cyclohexyl-2-((S)-3-(6-isopropylbenzo[d]thiazol-2-yl)-2-propionamidopropanamido)ethyl)acrylamide]
< 150	C=C(CN1CC(F)(F)C1)C(=O)NC[C@@H](NC(=O)[C@H](Cc1nc2ccc(C(C)C)cc2s1)NC(=O)CC)C1CCCCC1 [Example 26, N—((S)-2-cyclohexyl-2-((S)-3-(6-isopropylbenzo[d]thiazol-2-yl)-2-propionamidopropanamido)ethyl)-2-((3,3-difluoroazetidin-1-yl)methyl)acrylamide]
< 150	C=C(CN1CCN(C)CC1)C(=O)NC[C@@H](NC(=O)[C@H](Cc1nc2ccc(C(C)C)cc2s1)NC(=O)CC)C1CCCCC1 [Example 27, N—((S)-2-cyclohexyl-2-((S)-3-(6-isopropylbenzo[d]thiazol-2-yl)-2-propionamidopropanamido)ethyl)-2-((4-methylpiperazin-1-yl)methyl)acrylamide]
< 150	C=C(CN1CCS(=O)(=O)CC1)C(=O)NC[C@@H](NC(=O)[C@H](Cc1nc2ccc(C(C)C)cc2s1)NC(=O)CC)C1CCCCC1 [Example 28, N—((S)-2-cyclohexyl-2-((S)-3-(6-isopropylbenzo[d]thiazol-2-yl)-2-propionamidopropanamido)ethyl)-2-((1,1-dioxidothiomorpholino)methyl)acrylamide]
< 150	C=C(CN1CCN(CCO)CC1)C(=O)NC[C@@H](NC(=O)[C@H](Cc1nc2ccc(C(C)C)cc2s1)NC(=O)CC)C1CCCCC1 [Example 29, N—((S)-2-cyclohexyl-2-((S)-3-(6-isopropylbenzo[d]thiazol-2-yl)-2-propionamidopropanamido)ethyl)-2-((4-(2-hydroxyethyl)piperazin-1-yl)methyl)acrylamide]
< 150	C=C(CN1CCC(F)(F)CC1)C(=O)NC[C@@H](NC(=O)[C@H](Cc1nc2ccc(C(C)C)cc2s1)NC(=O)CC)C1CCCCC1 [Example 30, N—((S)-2-cyclohexyl-2-((S)-3-(6-isopropylbenzo[d]thiazol-2-yl)-2-propionamidopropanamido)ethyl)-2-((4,4-difluoropiperidin-1-yl)methyl)acrylamide]
< 150	C=CC(=O)NC[C@H](Cc1ccncc1)NC(=O)[C@H](Cc1nc2ccc(C(C)C)cc2s1)NC(=O)CC [Example 31, N—((S)-2-((S)-3-(6-isopropylbenzo[d]thiazol-2-yl)-2-propionamidopropanamido)-3-(pyridin-4-yl)propyl)acrylamide]
< 150	C=CC(=O)NC[C@H](Cc1cccnc1)NC(=O)[C@H](Cc1nc2ccc(C(C)C)cc2s1)NC(=O)CC [Example 32, N—((S)-2-((S)-3-(6-isopropylbenzo[d]thiazol-2-yl)-2-propionamidopropanamido)-3-(pyridin-3-yl)propyl)acrylamide]
< 150	C=CS(=O)(=O)NC[C@H](Cc1cccnc1)NC(=O)[C@H](Cc1nc2ccc(C(C)C)cc2s1)NC(=O)CC [Example 33, (S)-3-(6-isopropylbenzo[d]thiazol-2-yl)-2-propionamido-N—((S)-1-(pyridin-3-yl)-3-(vinylsulfonamido)propan-2-yl)propanamide]
< 150	C=C(CN1CCOCC1)C(=O)NC[C@H](Cc1cccnc1)NC(=O)[C@H](Cc1nc2ccc(C(C)C)cc2s1)NC(=O)CC [Example 34, N—((S)-2-((S)-3-(6-isopropylbenzo[d]thiazol-2-yl)-2-propionamidopropanamido)-3-(pyridin-3-yl)propyl)-2-(morpholinomethyl)acrylamide]
< 300	C=C(CN1CCOCC1)C(=O)NC[C@H](Cc1ccccc1)NC(=O)[C@H](Cc1cn2cc(Cl)ccc2n1)NC(=O)CC [Example 35, N—((S)-2-((S)-3-(6-chloroimidazo[1,2-a]pyridin-2-yl)-2-propionamidopropanamido)-3-phenylpropyl)-2-(morpholinomethyl)acrylamide]
< 150	C=C(CN1CCOCC1)C(=O)NC[C@H](Cc1ccc(F)cc1)NC(=O)[C@H](Cc1nc2ccc(C(C)C)cc2s1)NC(=O)CC [Example 36, N—((S)-3-(4-fluorophenyl)-2-((S)-3-(6-isopropylbenzo[d]thiazol-2-yl)-2-propionamidopropanamido)propyl)-2-(morpholinomethyl)acrylamide]
< 200	C=CC(=O)NC[C@@H](NC(=O)[C@H](Cc1nc2ccc(C(C)C)cc2s1)NC(=O)CC)C1CCCCC1 [Example 37, N—((S)-2-cyclohexyl-2-((S)-3-(6-isopropylbenzo[d]thiazol-2-yl)-2-propionamidopropanamido)ethyl)acrylamide]
